Test results as given in patent US6191135A, “Neurokinin antagonists” (Boehringer Ingelheim KG, priority 1994, dated 2001).
pKi: −log10 of the molar value.

Target: T1, NK1 -receptor (substance P-receptor) (Homo sapiens, UniProt P25103)
T1 construct: intact human lymphoblastoma cells (IM-9) which express NK1 -receptors; endogenous in cells; host or cells: IM-9 human lymphoblastoma cells
Assay: NK1-receptor affinity: displacement of 125I labelled substance P on intact human lymphoblastoma cells (IM-9)
Assay type: binding
Conditions: intact human lymphoblastoma cells (IM-9) expressing NK1-receptors, read-out: Ki
Method: The receptor affinity for the NK1 -receptor (substance P-receptor) was determined on intact human lymphoblastoma cells (IM-9) which express NK1 -receptors, and the displacement of ^125 I labelled substance P was measured.

T1 sequence (P25103 whole entry): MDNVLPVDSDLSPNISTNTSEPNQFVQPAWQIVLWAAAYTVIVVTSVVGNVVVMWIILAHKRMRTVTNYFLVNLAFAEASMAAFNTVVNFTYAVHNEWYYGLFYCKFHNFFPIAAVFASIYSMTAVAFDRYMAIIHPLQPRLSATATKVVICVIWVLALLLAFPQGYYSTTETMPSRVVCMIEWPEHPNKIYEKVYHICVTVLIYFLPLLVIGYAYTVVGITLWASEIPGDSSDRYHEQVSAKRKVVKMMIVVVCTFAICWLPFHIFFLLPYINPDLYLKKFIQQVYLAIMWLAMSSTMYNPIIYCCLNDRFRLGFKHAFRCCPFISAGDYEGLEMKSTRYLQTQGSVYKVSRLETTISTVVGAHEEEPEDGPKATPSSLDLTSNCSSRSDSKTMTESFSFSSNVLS

| SMILES | pKi |
| --- | --- |
| COc1ccccc1C(CNCc1cc(C(F)(F)F)cc(C(F)(F)F)c1)N1CCCC(C)C1 (centres unmarked) [Example 81, 3,5-Bistrifluoromethylbenzyl-[2-(2-methoxyphenyl)-2-(3-methylpiperidine-1-yl)-ethyl]-amine] | 7.05 |
| COc1ccccc1C(CNCc1cc(C(F)(F)F)cc(C(F)(F)F)c1)N1CCC(C)CC1 (centres unmarked) [Example 82, 3,5-Bistrifluoromethylbenzyl-[2-(2-methoxyphenyl)-2-(4-methylpiperidine-1-yl)-ethyl]-amine] | 7.28 |
| COc1ccccc1C(CNCc1cc(C(F)(F)F)cc(C(F)(F)F)c1)N1CC(C)CC(C)C1 (centres unmarked) [Example 83, 3,5-Bistrifluoromethylbenzyl-[2-(2-methoxyphenyl)-2-(3,5-dimethylpiperidine-1-yl)-ethyl]-amine] | 6.68 |
| COc1ccccc1C(CNCc1cc(C(F)(F)F)cc(C(F)(F)F)c1)N1CCC(C2CCCCC2)CC1 (centres unmarked) [Example 89, 3,5-Bistrifluoromethylbenzyl-[2-(2-methoxyphenyl)-2-(4-cyclohexylpiperidine-1-yl)-ethyl]-amine] | 7.10 |
| COc1ccccc1C(CNCc1cc(C(F)(F)F)cc(C(F)(F)F)c1)N1CCC(N2CCCCC2)CC1 (centres unmarked) [Example 91] | 8.70 |
| FC(F)(F)c1cc(CNCC(c2ccccc2)N2CCOCC2)cc(C(F)(F)F)c1 (centres unmarked) [Example 96, 3,5-Bistrifluoromethylbenzyl-(2-phenyl-2-morpholine-4-yl-ethyl)-amine] | 6.73 |
| COc1ccccc1C(CNCc1cc(C(F)(F)F)cc(C(F)(F)F)c1)N1CCC(c2c[nH]c3ccccc23)CC1 (centres unmarked) [Example 97, 3,5-Bistrifluoromethylbenzyl-(2-(2-methoxyphenyl)-2-(4-(3-indolyl)-piperidine-1-yl)-ethyl]-amine] | 6.52 |
| CN1CCN(C(CNC(=O)Nc2cc(C(F)(F)F)cc(C(F)(F)F)c2)c2ccccc2)CC1 (centres unmarked) [Example 105, N-3,5-Bistrifluoromethylphenyl-N'-[2-phenyl-2-(4-methylpiperazine-1-yl)-ethyl]-urea] | 7.11 |
| COc1ccccc1C(CNC(=O)Nc1cc(C(F)(F)F)cc(C(F)(F)F)c1)N1CCN(C)CC1 (centres unmarked) [Example 107, N-3,5-Bistrifluoromethylphenyl-N'-[2-(2-methoxyphenyl)-2-(4-methylpiperazin-1-yl)-ethyl]-urea] | 6.60 |
| CCCN1CCN(C(CNC(=O)Nc2cc(C(F)(F)F)cc(C(F)(F)F)c2)c2ccccc2OC)CC1 (centres unmarked) [Example 108, N-3,5-Bistrifluoromethylphenyl-N'-[2-(2-methoxyphenyl)-2-(4-(1-propyl)piperazine-1-yl)-ethyl]-urea] | 7.47 |
| COc1ccccc1C(CNC(=O)Nc1cc(C(F)(F)F)cc(C(F)(F)F)c1)N1CCN(C(C)C)CC1 (centres unmarked) [Example 110, N-3,5-Bistrifluoromethylphenyl-N'-[2-(2-methoxyphenyl)-2-(4-(2-propyl)piperazin-1-yl)-ethyl]-urea] | 7.55 |
| COc1ccccc1C(CNC(=O)Nc1cc(C(F)(F)F)cc(C(F)(F)F)c1)N1CCN(C2CCCC2)CC1 (centres unmarked) [Example 111, N-3,5-Bistrifluoromethylphenyl-N'-[2-(2-methoxyphenyl)-2-(4-cyclopentylpiperazine-1-yl)-ethyl]-urea] | 7.92 |
| O=C(NCC(c1ccccc1)N1CCN(C2CCCCC2)CC1)Nc1ccccc1 (centres unmarked) [Example 112, N-Phenyl-N'-[2-phenyl-2-(4-cyclohexylpiperazine-1-yl)-ethyl]-urea] | 6.00 |
| O=C(NCC(c1ccccc1)N1CCN(C2CCCCC2)CC1)Nc1ccccc1Cl (centres unmarked) [Example 113, N-2-Chlorophenyl-N'-[2-phenyl-2-(4-cyclohexylpiperazine-1-yl)-ethyl]-urea] | 6.39 |
| COc1ccccc1NC(=O)NCC(c1ccccc1)N1CCN(C2CCCCC2)CC1 (centres unmarked) [Example 114, N-2-Methoxyphenyl-N'-[2-phenyl-2-(4-cyclohexylpiperazine-1-yl)-ethyl]-urea] | 6.31 |
| O=C(NCC(c1ccccc1)N1CCN(C2CCCCC2)CC1)Nc1cc(C(F)(F)F)cc(C(F)(F)F)c1 (centres unmarked) [Example 115, N-3,5-Bistrifluoromethylphenyl-N'-[2-phenyl-2-(4-cyclohexylpiperazine-1-yl)-ethyl]-urea] | 7.52 |
| COc1ccccc1C(CNC(=O)Nc1cc(C(F)(F)F)cc(C(F)(F)F)c1)N1CCN(C2CCCCC2)CC1 (centres unmarked) [Example 116, N-3,5-Bistrifluoromethylphenyl-N'-[2-(2-methoxyphenyl)-2-(4-cyclohexylpiperazine-1-yl)-ethyl]-urea] | 7.62 |
| O=C(NCC(c1ccc(Cl)c(Cl)c1)N1CCN(C2CCCCC2)CC1)Nc1cc(C(F)(F)F)cc(C(F)(F)F)c1 (centres unmarked) [Example 117, N-3,5-Bistrifluoromethylphenyl-N'-[2-(3,4-dichlorophenyl)-2-(4-cyclohexylpiperazine-1-yl)-ethyl]-urea] | 7.82 |
| COc1ccccc1C(CNC(=O)Nc1cc(C(F)(F)F)cc(C(F)(F)F)c1)N1CCN(C2CCCCCC2)CC1 (centres unmarked) [Example 120, N-3,5-Bistrifluoromethylphenyl-N'-[2-(2-methoxyphenyl)-2-(4-cycloheptylpiperazine-1-yl)-ethyl]-urea] | 7.44 |

| SMILES | pKi |
| --- | --- |
| COc1ccccc1C(CNC(=O)Nc1cc(C(F)(F)F)cc(C(F)(F)F)c1)N1CCN(CCC2CCCCC2)CC1 (centres unmarked) [Example 121, N-3,5-Bistrifluoromethylphenyl-N'-[2-(2-methoxyphenyl)-2-(4-(2-cyclohexylethyl)piperazine-1-yl)-ethyl]-urea] | 6.91 |
| O=C(NCC(c1ccccc1)N1CCN(c2ccccc2)CC1)Nc1cc(C(F)(F)F)cc(C(F)(F)F)c1 (centres unmarked) [Example 123, N-3,5-Bistrifluoromethylphenyl-N'-[2-phenyl-2-(4-phenylpiperazine-1-yl)-ethyl]-urea] | 6.22 |
| COc1ccccc1C(CNC(=O)Nc1cc(C(F)(F)F)cc(C(F)(F)F)c1)N1CCN(c2ccccc2)CC1 (centres unmarked) [Example 142] | 6.19 |
| O=C(NCC(c1ccccc1)N1CCN(Cc2ccccc2)CC1)Nc1cc(C(F)(F)F)cc(C(F)(F)F)c1 (centres unmarked) [Example 146] | 6.94 |
| COc1ccccc1C(CNC(=O)Nc1cc(C(F)(F)F)cc(C(F)(F)F)c1)N1CCN(Cc2ccccc2)CC1 (centres unmarked) [Example 147] | 6.72 |
| COc1ccccc1C(CNC(=O)Nc1cc(C(F)(F)F)cc(C(F)(F)F)c1)N1CCN(Cc2ccc3c(c2)OCO3)CC1 (centres unmarked) [Example 148, N-3,5-Bistrifluoromethylphenyl-N'-[2-(2-methoxyphenyl)-2-(3,4-methylenedioxybenzyl-piperazine-1-yl)-ethyl]-urea] | 6.54 |
| COc1ccccc1C(CNC(=O)Nc1cc(C(F)(F)F)cc(C(F)(F)F)c1)N1CCN(CCc2ccccc2)CC1 (centres unmarked) [Example 150, N-3,5-Bistrifluoromethyl-phenyl-phenyl-N'-[2-(2-methoxyphenyl-2-(4-2-phenylethyl)-piperazine-1-yl)-ethyl]-urea] | 6.14 |
| COc1ccccc1C(CNC(=O)Nc1cc(C(F)(F)F)cc(C(F)(F)F)c1)N1CCN(C(C)c2ccccc2)CC1 (centres unmarked) [Example 151] | 6.67 |
| COc1ccccc1C(CNC(=O)Nc1cc(C(F)(F)F)cc(C(F)(F)F)c1)N1CCN(c2ccccn2)CC1 (centres unmarked) [Example 156] | 6.32 |
| COc1ccccc1C(CNC(=O)Nc1cc(C(F)(F)F)cc(C(F)(F)F)c1)N1CCN(c2ccc3ccccc3n2)CC1 (centres unmarked) [Example 158, N-3,5-Bistrifluoromethylphenyl-N'-[2-(2-methoxyphenyl)-2-(4-(2-quinolinyl)piperazine-1-yl)-ethyl]-urea] | 6.04 |
| COc1ccccc1C(CNC(=O)Nc1cc(C(F)(F)F)cc(C(F)(F)F)c1)N1CCCCC1 (centres unmarked) [Example 166] | 6.82 |
| O=C(NCC(c1ccccc1)N1CCCCC1)Nc1cc(C(F)(F)F)cc(C(F)(F)F)c1 (centres unmarked) [Example 167] | 6.00 |
| COc1ccccc1C(CNC(=O)Nc1cc(C(F)(F)F)cc(C(F)(F)F)c1)N1CCCC(C)C1 (centres unmarked) [Example 169] | 6.05 |
| COc1ccccc1C(CNC(=O)Nc1cc(C(F)(F)F)cc(C(F)(F)F)c1)N1CCC(C)CC1 (centres unmarked) [Example 170] | 7.08 |
| COc1ccccc1C(CNC(=O)Nc1cc(C(F)(F)F)cc(C(F)(F)F)c1)N1CCC(C2CCCCC2)CC1 (centres unmarked) [Example 171, N-3,5-Bistrifluoromethylphenyl-N'-[2-(2-methoxyphenyl)-2-(4-cyclohexylpiperidin-1-yl)-ethyl]-urea] | 6.05 |
| COc1ccccc1C(CNC(=O)Nc1cc(C(F)(F)F)cc(C(F)(F)F)c1)N1CC(C)CC(C)C1 (centres unmarked) [Example 172] | 6.76 |
| COc1ccccc1C(CNC(=O)Nc1cc(C(F)(F)F)cc(C(F)(F)F)c1)N1CCC(Cc2ccccc2)CC1 (centres unmarked) [Example 175, N-3,5-Bistrifluoromethylphenyl-N'-[2-(2-methoxyphenyl)-2-(4-benzylpiperidin-1-yl)-ethyl]-urea] | 6.64 |
| COc1ccccc1C(CNC(=O)Nc1cc(C(F)(F)F)cc(C(F)(F)F)c1)N1C2CCCC1CC2 (centres unmarked) [Example 176, N-3,5-Bistrifluoromethylphenyl-N'-[2-(2-methoxyphenyl)-2-(nortropan-8-yl)-ethyl]-urea] | 7.04 |
| COc1ccccc1C(CNC(=O)Nc1cc(C(F)(F)F)cc(C(F)(F)F)c1)N1CCC(N2CCCCC2)CC1 (centres unmarked) [Example 177, N-3,5-Bistrifluoromethylphenyl-N'-[2-(2-methoxyphenyl)-2-(4-piperidin-1-yl)-piperidin-1-yl-ethyl]-urea] | 8.00 |
